The target in series [1] is recombinant PDI (Homo sapiens, UniProt P07237). The series is described as follows: PDI activity assay (di-eosin-di-gluthathione, eGSSG). Conditions: for PDI Activity at 10 μM (%): compound at 10 μM; for IC50: recombinant PDI, di-eosin-di-gluthathione assay. The class given is biochemical. The method, then: PDI activity assay: The di-eosin-di-gluthathione assay was performed essentially as described (Raturi, A. and Mutus, B Free Radical Biology & Medicine 43; 2007) with the minor modification that we used gluthathione instead of DTT as reducing agent. Briefly, recombinant PDI was incubated with CC642 or analogs in potassium-based assay buffer at 37° C. before reactions were started by addition of gluthathione and di-eosin-di-gluthathione. Release of eosin was measured every 60 seconds for 30 min using excitation/emission filters of 525 nm/545 nm, respectively.
Chain of recombinant PDI (P07237 18-508, species assumed): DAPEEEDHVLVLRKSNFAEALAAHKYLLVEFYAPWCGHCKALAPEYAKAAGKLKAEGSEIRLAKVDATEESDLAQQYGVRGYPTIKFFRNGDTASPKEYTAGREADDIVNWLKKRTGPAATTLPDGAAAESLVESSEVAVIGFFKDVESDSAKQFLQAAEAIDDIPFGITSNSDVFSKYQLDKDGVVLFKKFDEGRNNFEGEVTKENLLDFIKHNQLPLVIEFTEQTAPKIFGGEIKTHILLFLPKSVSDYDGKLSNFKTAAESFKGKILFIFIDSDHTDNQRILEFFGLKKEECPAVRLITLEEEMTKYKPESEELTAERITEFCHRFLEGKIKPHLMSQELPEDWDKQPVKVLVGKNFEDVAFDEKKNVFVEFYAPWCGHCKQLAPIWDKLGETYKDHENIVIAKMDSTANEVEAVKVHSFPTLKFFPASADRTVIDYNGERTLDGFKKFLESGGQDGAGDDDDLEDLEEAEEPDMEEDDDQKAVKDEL
(§1) Next, MM1.S cells were treated with B-CCF642 and purified lysates of treated and untreated cells for B-CCF642 binding proteins using streptavidin beads followed by SDS-PAGE and mass spectroscopy for protein sequencing of a band that contained biotin signal. Among 10 proteins that were only recovered from treated cells PDI was the most abundant but HSP70 family members were also recovered. To test whether HSP70 family members were inhibited by CCF642, chaperone assays were performed that tested rearrangement of partially denatured luciferase. […] However, PDI function, as assessed by the eGSSG assay which measures PDI's reducing capacity, was inhibited by CCF642 (table 1). […] To determine whether PDI activity is inhibited in vivo, the inventors performed IRE1-α immunoblots after CCF642 treatment of MM1.S cells. IRE1-α acts as a sensor for misfolded proteins in the ER and undergoes oligomerization after it binds to misfolded proteins which changes its conformation into an active state. Lavoie et al., Trends in biochemical sciences, 39(10):475-486 (2014). Within 15 min CCF642 caused IRE1-α oligomerization (FIG. 6) which was associated with increase in protein ubiquitination (FIGS. 2b and 4), a well-documented consequence of reduction in PDI activity. Lee et al., EMBO molecular medicine. 6(6):732-743 (2014).

Series [2] has as its system MM1.S. The series is described as follows: MM1.S myeloma cell viability. The class given is cell-based. Conditions: Homo sapiens; for viability at 6.75 µM: MM1.S, compound at 6.75 μM, read-out: MM1.S Viable cells at 6.75 μM (%); for IC50: MM1.S myeloma cells. The text has this:
Cell lines: Multiple myeloma cell lines MM1.S, MM1.R, NCI-H929 were obtained from ATCC. MM cell lines KMS-12-PE and KMS-12-BM were from the JCRB, JJN-3 from DSMZ, and 5TGM1-luc cells were from Dr. Yoneda at the University of Texas Health Science at San Antonio. HRMM.09 cells were generated in the inventor's lab from a patient who developed refractory myeloma after treatment with steroids, IMiD, proteasome inhibitors, DNA alkylators, and anthracyclines. MM1.S-luc and HRMM.09-luc were generated in the inventor's laboratory by transduction with Cignal™ firefly luciferase control lentivirus obtained from Qiagen™. Lymphoma cells were generated by Mitchell Smith. All MM and lymphoma cells were grown in RPMI 1640 (NaCl 103.45 mM, NaCO3 23.81 mM, Na2HPO4 5.63 mM, KCl 5.33 mM, Ca(NO3)2 4H2O 0.424 mM, MgSO4 0.407 mM, pH around 7.2), supplemented with 10% fetal bovine serum, penicillin G (50 units ml^−1), and streptomycin ([…]). HS-5 cells were grown in appropriate cell culture media. Normal bone marrow cells were obtained from discarded bags of bone marrow grafts from healthy donors and either kept in RPMI with 25% (v/v) HS-5 supernatant for up to 14 days for isolated cytotoxicity assays or frozen and thawed for the sandwich assay. All cells were cultured at 37° C., 5% CO2 in humidified air.

The nature of series [3]: Tolerability in mice. The class given is in vivo, C57BL/KaLwRij mice.
The test system of series [4] is lymphoma cell lines. The series is described as follows: Cytotoxicity in lymphoma cell line panel (trypan blue exclusion, Vicell). The class given is cell-based. Conditions: 6 of 7 (all but one) lymphoma lines, 72 h. As for the experimental part:
(§2) FIGS. 2(A-B) provide a graph and immunoblot showing the effect of CCF642 on cancer and protein ubiquitination, with FIG. 2(A) showing the activity of CCF642 against a panel of MM and lymphoma cells. Seventy two hours after CCF642 administration, the IC50 by trypan blue exclusion (Vicell™) is <1 μM for all MM and all but one lymphoma line. Normal bone marrow (NL BM) tolerated CCF642; myeloid cells were less sensitive, especially GDM1, with E3 ligase domain mutation of c-CBL and FIG. 2(B) showing that an increase in protein ubiquitination is accompanied by loss of myeloma survival factors in MM cells Immunoblots of MM1.S cells show rise followed by decrease of protein ubiquitination with loss of MM survival factors.
(§3) Cell lines: Multiple myeloma cell lines MM1.S, MM1.R, NCI-H929 were obtained from ATCC. MM cell lines KMS-12-PE and KMS-12-BM were from the JCRB, JJN-3 from DSMZ, and 5TGM1-luc cells were from Dr. Yoneda at the University of Texas Health Science at San Antonio. HRMM.09 cells were generated in the inventor's lab from a patient who developed refractory myeloma after treatment with steroids, IMiD, proteasome inhibitors, DNA alkylators, and anthracyclines. MM1.S-luc and HRMM.09-luc were generated in the inventor's laboratory by transduction with Cignal™ firefly luciferase control lentivirus obtained from Qiagen™. Lymphoma cells were generated by Mitchell Smith. […]

The test system of series [5] is MM cell lines. The series is described as follows: Cytotoxicity in MM cell line panel (trypan blue exclusion, Vicell). Conditions: 72 h, all 8 MM cell lines tested. The class given is cell-based. As for the experimental part:
as §2, §3

Series [6] deals with protein ubiquitination. The series is described as follows: Protein ubiquitination time course immunoblot in MM1.S cells. The class given is cell-based. The text has this: Protein ubiquitination and depletion of c-MYC, IRF4, and NF-κB. Initial tests were aimed at excluding proteasome inhibitors from further study and used WB for accumulation of ubiquitinated proteins after one day of therapy. […] Another proteasomally regulated protein, p27, disappeared as well.

Series [7] deals with IRE1-α. The series is described as follows: IRE1-α oligomerization immunoblot in MM1.S cells. The class given is cell-based. The method, then: as §1
(In general: A western blot detects proteins with antibodies after separation by electrophoresis.)

In series [8] the test system is normal bone marrow (NL BM) cells. As to the kind of experiment: Cytotoxicity in normal bone marrow. The class given is cell-based. The following applies: three independent normal bone marrow samples; doses up to 6.75 μM. The method, then:
as §2, §3

Structures are written as SMILES. A value given as a limit tells only on which side of the number the result lay.

The term IC50 denotes the concentration that inhibits the measured activity by half.

For `COc1ccc(N2C(=O)/C(=C/c3cccc([N+](=O)[O-])c3)SC2=S)cc1` [642-24], in series [1], the “PDI Activity at 10 μM (%)” value came out at 42.12% and the IC50 came to 8.66 µM. For the same molecule, in series [2], the viability at 6.75 µM amounted to 93.5% and the IC50 was more than 6.75 µM.
`COc1ccc(N2C(=O)C(=Cc3ccc(C(F)(F)F)s3)SC2=S)cc1` [642-20]: the “PDI Activity at 10 μM (%)” value in series [1] worked out at 72.37%. In addition, in series [2], the viability at 6.75 µM was 92.9% and the IC50 is more than 6.75 µM.
`C=CCc1cccc(/C=C2\SC(=S)N(c3ccc(OC)cc3)C2=O)c1O` [642-25]: in series [1], the “PDI Activity at 10 μM (%)” value is 40.37% and the IC50 amounted to 3.07 µM. Further, in series [2], the viability at 6.75 µM stood at 92.8% and the IC50 was more than 6.75 µM.
Taken in the same sequence, the figures for `N#Cc1ccc(N2C(=O)C(=Cc3ccc([N+](=O)[O-])s3)SC2=S)cc1` [642-23] were 5.92%, 1.9 µM, 17.5% and 0.61 µM.
As for `COc1ccc(N2C(=O)C(=Cc3ccc(C(=O)O)s3)SC2=S)cc1` [642-21], the “PDI Activity at 10 μM (%)” value in series [1] was determined as 71.54%. In addition, in series [2], the viability at 6.75 µM amounted to 102% and the IC50 is more than 6.75 µM.
For the molecule `COc1ccc(N2C(=O)/C(=C/c3ccc([N+](=O)[O-])s3)SC2=S)cc1` [642-Parent], in series [3] (C57BL/KaLwRij mice systemically engrafted with 5TGM1-luc), the “tolerability in 5TGM1-luc engrafted mice” value is given as “well tolerated”. Besides, in series [3] (albumin-based formulation (10-20% BSA, saline, 10% DMSO) given IV), the “tolerability IV” value is given as “tolerated by mice when given IV”. In addition, the “PDI Activity at 10 μM (%)” value in series [1] is reported as 21.51%. For the same molecule, the IC50 in series [1] is 2.44 µM; in series [4], less than 1 µM; in series [2], 0.25 µM; in series [5] it was less than 1 µM; in series [5] (listed as CCF642) it was approximately 0.5 µM; in series [8], more than 6.75 µM. Moreover, the viability at 6.75 µM in series [2] turned out to be 8.06%. Also, in series [6], the “time to increase in protein ubiquitination” value is not above 30 min. In addition, the “time to IRE1-α oligomerization” value in series [7] is on record as not above 15 min.
In series [3] (SC twice a week, C57BL/KaLwRij mice), `CC(C)C[C@H](NC(=O)[C@H](Cc1ccccc1)NC(=O)c1cnccn1)B(O)O` [bortezomib, reference compound] showed a maximal tolerated dose of 0.5 mg/kg.

The values above are taken from patent publication US9359342B2, “Protein disulfide isomerase inhibiting anticancer agents” (THE CLEVELAND CLINIC FOUNDATION, priority 2013, dated 2016).
